Laboratory results reported in US9618507B2, “Methods of treating rheumatoid arthritis” (Betanien Hospital, priority 2014, dated 2017).
Like-named read-outs stand apart in the source and are kept apart here. Marks after values point to notes of the source that are not given here. Where a SMILES comes first, the peptide text is derived from it. [ ]: non-standard residue; d: D form. dPhe(4-Cl) = N[C@H](Cc1ccc(Cl)cc1)C(=O)O; d2Nal = N[C@H](Cc1ccc2ccccc2c1)C(=O)O; dCit = NC(=O)NCCC[C@@H](N)C(=O)O; d3Pal = N[C@H](Cc1cccnc1)C(=O)O

Legend:
interleukin-1β = assay: Example 2: serum cytokine, multiplex high-sensitivity assay, interleukin-1β; format: in vivo, human; details: high gonadotropin patients
Protocol: (§1) The protocol-specified primary and secondary intention-to-treat endpoints of the original AGRA trial were analyzed in these post hoc analyses. The primary endpoint was the baseline-adjusted between-group difference in DAS28-CRP (Wells et al., supra) by day 5b. Secondary endpoints included the baseline-adjusted between-group difference in cytokines, proportions of patients achieving at least a 20%, 50%, and 70% improvement on the ACR scale (Felson D T, et al., Arthritis Rheum 1995; 38:727-35), categorical DAS28-CRP (European League Against […] [EULAR]) responses (Wells et al., supra; van Gestel A M, et al., Arthritis Rheum 1996; 39:34-40), DAS28-CRP≦3.2 (Wells et al., supra), DAS28-CRP<2.6 (Wells et al., supra), and the incidence of adverse events. Protocol-specified DAS28 outcomes were preferentially CRP-based rather than erythrocyte sedimentation rate (ESR)-based, as CRP usually changes before ESR. […] Multiplex technology (Luminex Inc., Austin, Tex.) measured these serum cytokines using high-sensitivity assays (sensitivities <0.5 pg/mL, allowing the detection of very low concentrations of cytokines) and identical lots of critical reagent of negligible cross-reactivity <2%, according to manufacturers' instructions (Bio-Rad, Hercules, Calif.). […] To enable intention-to-treat analyses with all patients N=53, non-detectable values were set at the lower limit of detection for cytokines, as is common for CRP values.
(§2) The original power calculation is previously reported (Kass A S, et al., Scand J Rheumatol Epub ahead of print 1 Nov. 2013). Baseline-adjusted between-group differences for all continuous endpoints were assessed with the use of analysis-of-covariance using outcome measurements at predefined time points as response variables, and treatment and baseline measurements as covariates. Dichotomous endpoints were compared with the Pearson chi-square test or Suissa-Shuster exact unconditional test, depending on expected-value distribution (Lydersen S, et al., Stat Med 2009; 28:1159-75). No adjustments for multiple analyses were made, owing to highly correlated endpoints. Due to skewed distributions, between-group changes of natural log-transformed cytokine levels from baseline were compared.

interleukin-10 = assay: Example 2: serum cytokine, multiplex high-sensitivity assay, interleukin-10; format: in vivo, human; details: high gonadotropin patients
Protocol: as §1, §2

[1] = test system: gonadotropins, oestradiol, testosterone, cortisol; assay: Example 2: hormones (gonadotropins, oestradiol, testosterone, cortisol) in high gonadotropin patients; format: in vivo, human
Excerpt: (§3) Non-competitive immunofluorometric assays were used for the quantitative determination of serum LH and FSH (Dissociation Enhanced Lanthanide Fluoroimmunoassay [DELFIA] kit, Turku, Finland). A competitive immunofluorometric assay was used for the determination of serum oestradiol (DELFIA kit, Turku, Finland). A competitive radioimmunoassay was used for the quantitative determination of serum testosterone (Orion Diagnostica. Espoo, Finland). A competitive Iuminoimmunoassay was used for the quantitative determination of serum cortisol (Immulite 2000, California, USA).

TNF-α [2] = assay: Example 1: serum TNF-α, high sensitivity bead-based fluorescence immunoassay; format: in vivo, human; details: by day 5
Protocol: (§4) Ethical committee approval was obtained. […] Safety and efficacy visits, with blood sampling, were between 0730 and 0930 h on days 1 (baseline), 2, 3, 4, 5 (visit 5a), 10, and 15. There was an additional visit (visit 5b) between 1930 and 2130 h when maximum GnRH suppression was anticipated.
TNF-α was measured using a high sensitivity bead-based fluorescence immunoassay (Luminex Inc., Austin, Tex. USA) with multiplex technology according to the manufacturers' instructions. […] Samples were assayed together within the same microplate on the same day. The assay sensitivity for TNF-α was 0.5 pg/mL. Due to its skewed distribution, the statistical analysis gives both the log and relative change (%) of TNF-α from baseline.

LH, FSH, cortisol = assay: Example 1: serum hormone assays (LH, FSH, cortisol); format: in vivo, human
Protocol: as §4, §3

TNF-α [3] = assay: Example 2: serum cytokine, multiplex high-sensitivity assay, TNF-α; format: in vivo, human; details: high gonadotropin patients
Protocol: as §1
The original power calculation is previously reported (Kass A S, et al., Scand J Rheumatol Epub ahead of print 1 Nov. 2013). Baseline-adjusted between-group differences for all continuous endpoints were assessed with the use of analysis-of-covariance using outcome measurements at predefined time points as response variables, and treatment and baseline measurements as covariates. Dichotomous endpoints were compared with the Pearson chi-square test or Suissa-Shuster exact unconditional test, depending on expected-value distribution (Lydersen S, et al., Stat Med 2009; 28:1159-75). […]

CRP = details: high gonadotropin patients, by day 15
Protocol: The protocol-specified primary and secondary intention-to-treat endpoints of the original AGRA trial were analyzed in these post hoc analyses. The primary endpoint was the baseline-adjusted between-group difference in DAS28-CRP (Wells et al., supra) by day 5b. […] Multiplex technology (Luminex Inc., Austin, Tex.) measured these serum cytokines using high-sensitivity assays (sensitivities <0.5 pg/mL, allowing the detection of very low concentrations of cytokines) and identical lots of critical reagent of negligible cross-reactivity <2%, according to manufacturers' instructions (Bio-Rad, Hercules, Calif.). […]
The original power calculation is previously reported (Kass A S, et al., Scand J Rheumatol Epub ahead of print 1 Nov. 2013). Baseline-adjusted between-group differences for all continuous endpoints were assessed with the use of analysis-of-covariance using outcome measurements at predefined time points as response variables, and treatment and baseline measurements as covariates. […]

Structure (SMILES): CC(=O)N[C@H](Cc1ccc2ccccc2c1)C(=O)N[C@H](Cc1ccc(Cl)cc1)C(=O)N[C@H](Cc1cccnc1)C(=O)N[C@@H](CO)C(=O)N[C@@H](Cc1ccc(O)cc1)C(=O)N[C@H](CCCNC(N)=O)C(=O)N[C@@H](CC(C)C)C(=O)N[C@@H](CCCNC(=N)N)C(=O)N1CCC[C@H]1C(=O)N[C@H](C)C(N)=O [cetrorelix] (Ac-[d2Nal][dPhe(4-Cl)][d3Pal]SY[dCit]LRP[dA]-NH2)
- IL-1β level, Final Day 15 (interleukin-1β; N = 27, mean ± SD): −1.68 ± 1.4 log pg/mL
- IL-1β Change from baseline by day 15 (interleukin-1β; N = 27, placebo +0.10): −0.20 log pg/mL
- Interleukin-1β change compared with placebo (interleukin-1β; by day 15, P=0.034): significantly decreased
- IL-1β Baseline-Adjusted Between-Group Difference (interleukin-1β; day 15, 95% CI (0.02, 0.59), P < 0.05): 0.30‡ log pg/mL
- IL-10 level, Final Day 15 (interleukin-10; N = 27, mean ± SD): −0.31 ± 2.1 log pg/mL
- IL-10 Change from baseline by day 15 (interleukin-10; N = 27, placebo +0.13): −0.40 log pg/mL
- interleukin-10 change compared with placebo (interleukin-10; by day 15, P=0.020): significantly decreased
- IL-10 Baseline-Adjusted Between-Group Difference (interleukin-10; day 15, 95% CI (0.10, 1.08), P < 0.05): 0.59‡ log pg/mL
- Cortisol change compared with placebo (words) [1]: significantly decreased
- gonadotropins change compared to placebo [1]: significantly reduced
- oestradiol change compared to placebo [1]: significantly reduced
- testosterone change compared to placebo [1]: significantly reduced
- gonadotropin levels, onset ([1]; by day 2): decreased
- Cortisol between-group difference ([1]; by day 5, 95% CI 10.5 to 95.8, P=0.016): 53.1 nmol/L
- Cortisol change compared with placebo (words) ([1]; listed as Cetrorelix): significantly reduced
- TNF-α reduction (change from baseline) (TNF-α [2]; all patients with detectable TNF-α, placebo −0.02): −0.58 log pg/mL
- TNF-α between group difference vs placebo (TNF-α [2]; 95% CI 0.08-1.01, p 0.023): 0.55 log pg/mL
- TNF-α percentage change from baseline (TNF-α [2]; placebo 11.1%): −28.2%
- LH and FSH levels (LH, FSH, cortisol; all patients allocated to cetrorelix, onset): reduced as early as day 2
- Cortisol changes between groups (LH, FSH, cortisol; all patients, by day 5, p 0.80): not significantly different between groups
- TNF-α level, Final Day 15 (TNF-α [3]; N = 27, mean ± SD): 0.01 ± 2.1 log pg/mL
- TNF-α Change from baseline by day 15 (TNF-α [3]; N = 27, placebo +0.02): −0.45 log pg/mL
- TNF-α Baseline-Adjusted Between-Group Difference (TNF-α [3]; day 15, 95% CI (0.01, 0.96), P < 0.05): 0.49‡ log pg/mL
- CRP between-group difference (CRP; 95% CI 0.22 to 10.7, P=0.042): 5.45 mg/L
- CRP change (CRP; placebo 0.85): -5.1 mg/L
